Test results published in patent US20240368209A1, “GEMCITABINE ANTICANCER DERIVATIVE AND ANTICANCER PHARMACEUTICAL USE” (ASCENTAWITS PHARMACEUTICALS, LTD., priority 2021, published 2024).

System: HuPrime pancreatic cancer xenograft model PA1222
Assay: In vivo pharmacodynamic experiment in HuPrime pancreatic cancer PA1222 PDX model
Conditions: for Tumor volume (x ± S): mean ± standard error
[1] = Group 5, 160 mg/kg i.v. Q2D×3 weeks, Day 32

For CC(C)NP(=O)(OCc1ccc([N+](=O)[O-])c(Oc2ccc(-c3ccc(F)cc3)c(F)c2)c1)OCC1OC(C2N=CC(N)=NC2=O)C(F)(F)C1O (centres unmarked) [Compound H11], the “Tumor volume (x ± S)” value (Group 4, 160 mg/kg i.p. QD×5, 2 days off, 2 weeks off, QD×5, Day 32) was 202.58 ± 45.40, the “Average weight (g) of mice” value (Group 4, 160 mg/kg i.p., Day 0) was 21.4 g and the “Average weight (g) of mice” value (Group 4, 160 mg/kg i.p., Day 1) was 22.0 g. For the same compound, the “Average weight (g) of mice” value (Group 4, 160 mg/kg i.p., Day 2) was 21.5 g, the “Average weight (g) of mice” value (Group 4, 160 mg/kg i.p., Day 3) was 22.0 g and the “Average weight (g) of mice” value (Group 4, 160 mg/kg i.p., Day 4) was 21.7 g. For the same compound, the “Average weight (g) of mice” value (Group 4, 160 mg/kg i.p., Day 7) was 22.3 g, the “Average weight (g) of mice” value (Group 4, 160 mg/kg i.p., Day 11) was 22.5 g and the “Average weight (g) of mice” value (Group 4, 160 mg/kg i.p., Day 14) was 22.9 g. For the same compound, the “Average weight (g) of mice” value (Group 4, 160 mg/kg i.p., Day 18) was 22.7 g, the “Average weight (g) of mice” value (Group 4, 160 mg/kg i.p., Day 21) was 22.9 g and the “Average weight (g) of mice” value (Group 4, 160 mg/kg i.p., Day 22) was 22.6 g. For the same compound, the “Average weight (g) of mice” value (Group 4, 160 mg/kg i.p., Day 23) was 22.5 g, the “Average weight (g) of mice” value (Group 4, 160 mg/kg i.p., Day 24) was 22.6 g and the “Average weight (g) of mice” value (Group 4, 160 mg/kg i.p., Day 25) was 22.5 g. The “Average weight (g) of mice” value (Group 4, 160 mg/kg i.p., Day 28) was 22.6 g, the “Average weight (g) of mice” value (Group 4, 160 mg/kg i.p., Day 32) was 23.3 g and the “Tumor volume (mm^3) (x ± S)” value (Group 4, 160 mg/kg i.p., day 0) was 101.91 mm^3. For the same compound, the “Tumor volume (mm^3) (x ± S)” value (Group 4, 160 mg/kg i.p., day 4) was 105.94 mm^3, the “Tumor volume (mm^3) (x ± S)” value (Group 4, 160 mg/kg i.p., day 7) was 96.63 mm^3 and the “Tumor volume (mm^3) (x ± S)” value (Group 4, 160 mg/kg i.p., day 11) was 116.07 mm^3. The “Tumor volume (mm^3) (x ± S)” value (Group 4, 160 mg/kg i.p., day 14) was 139.61 mm^3, the “Tumor volume (mm^3) (x ± S)” value (Group 4, 160 mg/kg i.p., day 18) was 153.86 mm^3 and the “Tumor volume (mm^3) (x ± S)” value (Group 4, 160 mg/kg i.p., day 21) was 188.69 mm^3. For the same compound, the “Tumor volume (mm^3) (x ± S)” value (Group 4, 160 mg/kg i.p., day 25) was 198.68 mm^3, the “Tumor volume (mm^3) (x ± S)” value (Group 4, 160 mg/kg i.p., day 28) was 195.90 mm^3 and the “Tumor volume (mm^3) (x ± S)” value (Group 4, 160 mg/kg i.p., day 32) was 202.58 mm^3. For the same compound, the “weight loss and tolerability during treatment” value (Group 5, 160 mg/kg i.v. Q2D×3 weeks) was “did not show any significant weight loss, and tolerated well”, the “Relative tumor volume (x ± S)” value [1] was 0.00 ± 0.00 and the “T/C (%)” value [1] was 0.00%. For the same compound, the “TGI (%)” value [1] was 100%, the “complete tumor inhibition rate” value [1] was 100% and the “Tumor volume (x ± S)” value [1] was 0.00 ± 0.00. For the same compound, the “Average weight (g) of mice” value (Group 5, 160 mg/kg i.v., Day 0) was 21.6 g, the “Average weight (g) of mice” value (Group 5, 160 mg/kg i.v., Day 2) was 21.8 g and the “Average weight (g) of mice” value (Group 5, 160 mg/kg i.v., Day 4) was 21.4 g. For the same compound, the “Average weight (g) of mice” value (Group 5, 160 mg/kg i.v., Day 7) was 20.9 g, the “Average weight (g) of mice” value (Group 5, 160 mg/kg i.v., Day 8) was 21.6 g and the “Average weight (g) of mice” value (Group 5, 160 mg/kg i.v., Day 10) was 21.3 g. The “Average weight (g) of mice” value (Group 5, 160 mg/kg i.v., Day 11) was 22.1 g, the “Average weight (g) of mice” value (Group 5, 160 mg/kg i.v., Day 12) was 22.2 g and the “Average weight (g) of mice” value (Group 5, 160 mg/kg i.v., Day 14) was 22.0 g. For the same compound, the “Average weight (g) of mice” value (Group 5, 160 mg/kg i.v., Day 16) was 22.3 g, the “Average weight (g) of mice” value (Group 5, 160 mg/kg i.v., Day 18) was 22.1 g and the “Average weight (g) of mice” value (Group 5, 160 mg/kg i.v., Day 20) was 22.1 g. For the same compound, the “Average weight (g) of mice” value (Group 5, 160 mg/kg i.v., Day 21) was 22.3 g, the “Average weight (g) of mice” value (Group 5, 160 mg/kg i.v., Day 25) was 22.6 g and the “Average weight (g) of mice” value (Group 5, 160 mg/kg i.v., Day 28) was 22.5 g. The “Average weight (g) of mice” value (Group 5, 160 mg/kg i.v., Day 32) was 23.2 g, the “Tumor volume (mm^3) (x ± S)” value (Group 5, 160 mg/kg i.v., day 0) was 102.11 mm^3 and the “Tumor volume (mm^3) (x ± S)” value (Group 5, 160 mg/kg i.v., day 4) was 98.46 mm^3. For the same compound, the “Tumor volume (mm^3) (x ± S)” value (Group 5, 160 mg/kg i.v., day 7) was 79.97 mm^3, the “Tumor volume (mm^3) (x ± S)” value (Group 5, 160 mg/kg i.v., day 11) was 40.67 mm^3 and the “Tumor volume (mm^3) (x ± S)” value (Group 5, 160 mg/kg i.v., day 14) was 22.37 mm^3. For the same compound, the “Tumor volume (mm^3) (x ± S)” value (Group 5, 160 mg/kg i.v., day 18) was 11.52 mm^3, the “Tumor volume (mm^3) (x ± S)” value (Group 5, 160 mg/kg i.v., day 21) was 11.56 mm^3 and the “Tumor volume (mm^3) (x ± S)” value (Group 5, 160 mg/kg i.v., day 25) was 6.73 mm^3. The “Tumor volume (mm^3) (x ± S)” value (Group 5, 160 mg/kg i.v., day 28) was 0.00 mm^3 and the “Tumor volume (mm^3) (x ± S)” value (Group 5, 160 mg/kg i.v., day 32) was 0.00 mm^3.
